Measurements as given in patent US7244431B2, “Allergy vaccines and their preparation” (priority 2000, dated 2007).

Assays:
[1] = system: IgE antibodies in sera from birch pollen allergic patients; experiment: ELISA detection of peptide- and rBet v 1-specific IgE antibodies; format: binding, human
Summary of the method: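 Sera from 60 birch pollen allergic patients (rhinoconjunctivitis and/or asthma; skin prick and CAP RAST characterized) plus one non-atopic individual, diluted 1:3, incubated overnight at 4 °C on coated plates. Bound IgE detected with 1:1000 alkaline-phosphatase-coupled mouse anti-human IgE.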

[2] = system: birch pollen allergic patients; experiment: Skin prick testing of allergic patients; format: in vivo, human; conditions: 100 μg/ml
Method: SPTs were performed on the individuals forearms as described ([…]. et al. (1997) J. Clin Invest. 99, 1673-168; Dreborg S: (1989) J. Am. Acad. DerMatol. 21, 820-821). […] In addition standardized skin prick solutions (birch pollen extract and histamine) (Allergopharma, Reinbek, Germany) were tested. Reactions were recorded 20 minutes after SPT by photography and by transferring the ballpoint pen-surrounded wheal area with a scotch tape to paper.

[3] = NMR analysis for residual secondary or tertiary structure; format: physicochemical; conditions: water solution
Method: NMR was then used to check for residual secondary or tertiary structure. Compared to other spectroscopical approaches, this technique has the advantage that it provides positional information along the sequence.
Peptides were examined for tertiary and/or secondary structure by one and two-dimensional nuclear magnetic resonance (NMR) on a UNITY VARIAN 600 MHz spectrometer equipped with z-shielded gradient coils using 0.8-1.0 mM samples in 90% H2O/10% D2O, 20 mM potassium phosphate buffer pH 7.0, at 20° C. […] Mixing times used were 70 ms and 150 or 200 ms for TOCSY and NOESY experiments, respectively.
The absence of ring current shifted peaks in the region of the spectra below 0.5 ppm typical of well folded proteins is also a feature common to the spectra of the Bet v 1 peptides (data not shown). […] This peptide (P5), that in the Bet v 1 structure spans the whole C-terminal helix probably tends to form helical structures that aggregate in water solution.

With “CKAEQVKASKEMGETLLRAVESYLLAHSDAYN [Peptide P5, Bet v 1-derived synthetic peptide, position aa 130-160, one cysteine added]” the “IgE (OD)” value ([1]; serum of NHS, non-allergic control individual) was “— (Dashes indicate reactivities below the cut-off level (OD=0.050))”, the “IgE (OD)” value ([1]; serum of patient 1) was “— (Dashes indicate reactivities below the cut-off level (OD=0.050))” and the “IgE (OD)” value ([1]; serum of patient 2) was “— (Dashes indicate reactivities below the cut-off level (OD=0.050))”. For the same sequence, the “IgE (OD)” value ([1]; serum of patient 3) was “— (Dashes indicate reactivities below the cut-off level (OD=0.050))”, the “IgE (OD)” value ([1]; serum of patient 4) was “— (Dashes indicate reactivities below the cut-off level (OD=0.050))” and the “IgE (OD)” value ([1]; serum of patient 5) was “— (Dashes indicate reactivities below the cut-off level (OD=0.050))”. The “IgE (OD)” value ([1]; serum of patient 6) was “— (Dashes indicate reactivities below the cut-off level (OD=0.050))”, the “IgE (OD)” value ([1]; serum of patient 7) was “— (Dashes indicate reactivities below the cut-off level (OD=0.050))” and the “IgE (OD)” value ([1]; serum of patient 8) was “— (Dashes indicate reactivities below the cut-off level (OD=0.050))”. The “IgE (OD)” value ([1]; serum of patient 9) was “— (Dashes indicate reactivities below the cut-off level (OD=0.050))”, the “IgE (OD)” value ([1]; serum of patient 10) was “— (Dashes indicate reactivities below the cut-off level (OD=0.050))” and the “IgE (OD)” value ([1]; serum of patient 11) was “— (Dashes indicate reactivities below the cut-off level (OD=0.050))”. For the same sequence, the “IgE (OD)” value ([1]; serum of patient 12) was “— (Dashes indicate reactivities below the cut-off level (OD=0.050))”, the “IgE (OD)” value ([1]; serum of patient 13) was “— (Dashes indicate reactivities below the cut-off level (OD=0.050))” and the “IgE (OD)” value ([1]; serum of patient 14) was “— (Dashes indicate reactivities below the cut-off level (OD=0.050))”. For the same sequence, the “IgE (OD)” value ([1]; serum of patient 15) was “— (Dashes indicate reactivities below the cut-off level (OD=0.050))”, the “IgE (OD)” value ([1]; serum of patient 16) was “— (Dashes indicate reactivities below the cut-off level (OD=0.050))” and the “IgE (OD)” value ([1]; serum of patient 17) was “— (Dashes indicate reactivities below the cut-off level (OD=0.050))”. The “IgE (OD)” value ([1]; serum of patient 18) was “— (Dashes indicate reactivities below the cut-off level (OD=0.050))”, the “IgE (OD)” value ([1]; serum of patient 19) was “— (Dashes indicate reactivities below the cut-off level (OD=0.050))” and the “IgE (OD)” value ([1]; serum of patient 20) was “— (Dashes indicate reactivities below the cut-off level (OD=0.050))”. The “IgE (OD)” value ([1]; serum of patient 21) was “— (Dashes indicate reactivities below the cut-off level (OD=0.050))”, the “IgE (OD)” value ([1]; serum of patient 22) was “— (Dashes indicate reactivities below the cut-off level (OD=0.050))” and the “IgE (OD)” value ([1]; serum of patient 23) was “— (Dashes indicate reactivities below the cut-off level (OD=0.050))”. For the same sequence, the “IgE (OD)” value ([1]; serum of patient 24) was “— (Dashes indicate reactivities below the cut-off level (OD=0.050))”, the “IgE (OD)” value ([1]; serum of patient 25) was “— (Dashes indicate reactivities below the cut-off level (OD=0.050))” and the “IgE (OD)” value ([1]; serum of patient 26) was “— (Dashes indicate reactivities below the cut-off level (OD=0.050))”. For the same sequence, the “IgE (OD)” value ([1]; serum of patient 27) was “— (Dashes indicate reactivities below the cut-off level (OD=0.050))”, the “IgE (OD)” value ([1]; serum of patient 28) was “— (Dashes indicate reactivities below the cut-off level (OD=0.050))” and the “IgE (OD)” value ([1]; serum of patient 29) was “— (Dashes indicate reactivities below the cut-off level (OD=0.050))”. The “IgE (OD)” value ([1]; serum of patient 30) was “— (Dashes indicate reactivities below the cut-off level (OD=0.050))”, the “IgE (OD)” value ([1]; serum of patient 31) was “— (Dashes indicate reactivities below the cut-off level (OD=0.050))” and the “IgE (OD)” value ([1]; serum of patient 32) was “— (Dashes indicate reactivities below the cut-off level (OD=0.050))”. For the same sequence, the “IgE (OD)” value ([1]; serum of patient 33) was “— (Dashes indicate reactivities below the cut-off level (OD=0.050))”, the “IgE (OD)” value ([1]; serum of patient 34) was “— (Dashes indicate reactivities below the cut-off level (OD=0.050))” and the “IgE (OD)” value ([1]; serum of patient 35) was “— (Dashes indicate reactivities below the cut-off level (OD=0.050))”. For the same sequence, the “IgE (OD)” value ([1]; serum of patient 36) was “— (Dashes indicate reactivities below the cut-off level (OD=0.050))”, the “IgE (OD)” value ([1]; serum of patient 37) was “— (Dashes indicate reactivities below the cut-off level (OD=0.050))” and the “IgE (OD)” value ([1]; serum of patient 38) was “— (Dashes indicate reactivities below the cut-off level (OD=0.050))”. For the same sequence, the “IgE (OD)” value ([1]; serum of patient 39) was “— (Dashes indicate reactivities below the cut-off level (OD=0.050))”, the “IgE (OD)” value ([1]; serum of patient 40) was “— (Dashes indicate reactivities below the cut-off level (OD=0.050))” and the “IgE (OD)” value ([1]; serum of patient 41) was “— (Dashes indicate reactivities below the cut-off level (OD=0.050))”. For the same sequence, the “IgE (OD)” value ([1]; serum of patient 42) was “— (Dashes indicate reactivities below the cut-off level (OD=0.050))”, the “IgE (OD)” value ([1]; serum of patient 43) was “— (Dashes indicate reactivities below the cut-off level (OD=0.050))” and the “IgE (OD)” value ([1]; serum of patient 44) was “— (Dashes indicate reactivities below the cut-off level (OD=0.050))”. The “IgE (OD)” value ([1]; serum of patient 45) was “— (Dashes indicate reactivities below the cut-off level (OD=0.050))”, the “IgE (OD)” value ([1]; serum of patient 46) was “— (Dashes indicate reactivities below the cut-off level (OD=0.050))” and the “IgE (OD)” value ([1]; serum of patient 47) was “— (Dashes indicate reactivities below the cut-off level (OD=0.050))”. For the same sequence, the “IgE (OD)” value ([1]; serum of patient 48) was “— (Dashes indicate reactivities below the cut-off level (OD=0.050))”, the “IgE (OD)” value ([1]; serum of patient 49) was “— (Dashes indicate reactivities below the cut-off level (OD=0.050))” and the “IgE (OD)” value ([1]; serum of patient 50) was “— (Dashes indicate reactivities below the cut-off level (OD=0.050))”. For the same sequence, the “IgE (OD)” value ([1]; serum of patient 51) was “— (Dashes indicate reactivities below the cut-off level (OD=0.050))”, the “IgE (OD)” value ([1]; serum of patient 52) was “— (Dashes indicate reactivities below the cut-off level (OD=0.050))” and the “IgE (OD)” value ([1]; serum of patient 53) was “— (Dashes indicate reactivities below the cut-off level (OD=0.050))”. For the same sequence, the “IgE (OD)” value ([1]; serum of patient 54) was “— (Dashes indicate reactivities below the cut-off level (OD=0.050))”, the “IgE (OD)” value ([1]; serum of patient 55) was “— (Dashes indicate reactivities below the cut-off level (OD=0.050))” and the “IgE (OD)” value ([1]; serum of patient 56) was “— (Dashes indicate reactivities below the cut-off level (OD=0.050))”. For the same sequence, the “IgE (OD)” value ([1]; serum of patient 57) was “— (Dashes indicate reactivities below the cut-off level (OD=0.050))”, the “IgE (OD)” value ([1]; serum of patient 58) was “— (Dashes indicate reactivities below the cut-off level (OD=0.050))” and the “IgE (OD)” value ([1]; serum of patient 59) was “— (Dashes indicate reactivities below the cut-off level (OD=0.050))”. For the same sequence, the “IgE (OD)” value ([1]; serum of patient 60) was “— (Dashes indicate reactivities below the cut-off level (OD=0.050))”, the mean wheal diameter ([2]; individual 1) was 0 mm and the mean wheal diameter ([2]; individual 2) was 0 mm. The mean wheal diameter ([2]; individual 3) was 0 mm, the mean wheal diameter ([2]; individual 4) was 0 mm and the mean wheal diameter ([2]; individual 5) was 0 mm. The mean wheal diameter ([2]; individual 6 (allergic, without birch pollen allergy)) was 0 mm and the “aggregation (NMR)” value [3] was “unusually broad resonances suggesting aggregation”.
